Measurements as given in article PMC11274883, “Anticancer Effect of Pt^[sequence], Pt^II5MESS, Pt^II56MESS and Their Platinum(IV)-Dihydroxy Derivatives against Triple-Negative Breast Cancer and Cisplatin-Resistant Colorectal Cancer” (Cancers, 2024).

Assays:
Assay type in all cases: cell-based
HT29 cells = test: Cellular uptake of Pt by ICP-MS; conditions: for Intracellular Concentration: HT29, 3 µM; for Intracellular/extracellular ratio: HT29, extracellular 3 µM
Protocol: (§1) A final concentration of 10^6 cells/well of MDA−MB−231 and HT29 cells were seeded in 6-well plates and incubated overnight to adhere. The cells were then treated with a final concentration of 3 µM of either Pt^II or Pt^IV complexes. After 0, 0.5, 1, 3, 6, 12, 24 or 30 h, the medium was removed, and the cells were washed three times with cold PBS and allowed to dry. Then, 400 µL of 69% HNO3 (Baseline grade nitric acid with PPB level reported impurities, Seastar Chemicals, Sidney, BC, Canada) was added to each well for 90 min to ensure complete digestion. […] Iridium 193 (^193Ir) was mixed online and introduced into the ICP-MS to check uptake efficiency and matrix interference. All ICP-MS parameters are described in Table S2 and elaborated in Method S3. The results represent an average of three different experiments run in triplicate (±SEM) and expressed as nmol/10^6 cells or µM/cell. Quantification of the cellular uptake of Pt was based on external standards (Certified Standard from Sigma-Aldrich, VIC, Australia) containing Internal standard Ir.
(§2) Method S3. Cellular Uptake of Platinum(II) and (IV) complexes
(§3) A final concentration of 10^6 cells/well of MDA−MB−231 and HT29 cells were seeded in 6-well plates and incubated overnight to adhere. The cells were then treated with a final concentration of 3 µM of either PtII or PtIV complexes. After 0, 0.5, 1, 3, 6, 12, 24 or 30 h, the medium was removed, and the cells were washed three times with cold PBS and allowed to dry. Then, 400 µL of 69% HNO3 (Baseline grade nitric acid with Instrument Quality Grade Nitric acid with ppb level reported impurities, Seastar Chemicals, Sidney, Canada) was added to each well for 90 mins to ensure complete digestion. The digests were then moved to trace -metal free 15 mL centrifuge tubes […]
(§4) concentration of 3.5-4%. Iridium 193 (193Ir), selected as internal standard, has similar first ionisation potential and mass to Platinum 195 (195Pt). A concentration of 50 ppb 193Ir in 2% HNO3 solution was chosen for the Perkin Elmer NexION® Inductively Coupled Plasma Mass Spectrometer (ICP-MS) as it produced a steady state signal intensity of 600-800K counts per second. Mixing and injection of sample and internal standard solution was carried out using an ESI 7 port Valve system (Elemental Scientific, USA). A high-quality Solvent Flex 2 stop pump with 0.38 mm ID tubing was used in conjunction with the ICP-MS’s Peristaltic pump set at 20 […]
(§5) standard both, at 0.25 mL/min) being 0.5 mL/min. The ICP-MS was tuned to high sensitivity settings to facilitate detection of low Pt concentrations in samples. This was done by adjusting the nebuliser gas flow between […] to achieve maximum Indium 115 intensity whilst maintaining an acceptable average oxide and doubly charged ratio of 1.64-2.24% and 1.17-1.69% respectively. The analysis method was set to peak hopping mode with a dwell time of […] and 45 sweeps through the mass spectrum per sample read. […]
(§6) peak integration time of 4500 milliseconds and enabled the collection of numerous data points for peak integration thereby increasing accuracy. The ICP-MS was tuned daily, and its performance optimised to a set of suppliers recommended settings. Analysis was only carried out when optimal oxide and doubly charged ratios with high ionic sensitivity was achieved. All ICP-MS parameters are described in Table S2. The results represent an average of three different experiments run in triplicates (± SEM) and expressed as nmol/106 cells or µM/cell. Quantification of the cellular uptake of Pt was based on external standards (Certified Standard from Sigma-Aldrich NSW, Australia) containing Internal standard Ir. […]

MDA−MB−231 cells = test: Cellular uptake of Pt by ICP-MS; conditions: for Intracellular Concentration: MDA−MB−231, 3 µM; for Intracellular/extracellular ratio: MDA−MB−231, extracellular 3 µM
Protocol: as §1, §2, §3, §4, §5, §6

MDA−MB−231 3D networks = test: 3D bioprinted culture cytotoxicity (WST-1); conditions: 72 h, mean ± SEM
Text: To evaluate the cytotoxic effect of platinum(II) and (IV) complexes in 3D cell culture, MDA−MB−231 or HT29 cells were used to bioprint networks or spheroids with the non-contact drop-on-demand 3D RASTRUM bioprinter (Inventia Life Science, Alexandria, NSW, Australia). The 3D cultures use two constituents: bioink and activator. Cell pellets (2 × 10^6 cells) were resuspended in an activator reagent which forms an instant gel after its addition to the bioink by the bioprinter. The 3D large plug cell model with polyethylene glycol bioinks formulated to mimic the properties of in vivo tissue were chosen as follows. Matrix Px02.31 (activator F177 and bioink F242 with RGD: Fibronectin) was used for MDA−MB−231 3D embedded networks, Px02.00 (activator F177 and bioink F119 without RGD additives, Table S1) was used for MDA−MB−231 spheroids and matrix #Px02.09 (activator F177 and bioink F236 with adhesion peptides including, RGD: Fibronectin, and GFOGER: collagen type I to recapitulate rich in vivo tissue extracellular environments) was used for HT29 spheroids (Inventia Life Science) (Table S1). Each cell line was printed at 10,000 cells/well and loaded with the bioink fluids into the selected printer cartridge. After the automated priming of all fluids into the printer nozzles, each cell line was individually printed on tissue culture plates (Nunc^TM MicroWell^TM 96-Well, Nunclon Delta-Treated, Flat-Bottom Microplate, ThermoFisher #167008), with RASTRUM creating the 3D Large Plug across the 96-well plate. Following completion of the print run, 200 μL DMEM culture medium was added to each well using multichannel pipettes. The plate was then incubated for 7 days (humidified incubator with 5% CO2 at 37 °C) for compact and homogenous spheroid formation before the cytotoxicity assay. When the spheroids developed, post-7-day incubation, media was removed and replaced with 100 µL DMEM. […] Cytotoxicity was then assessed using the WST-1 assay as previously described in Section 2.3.

Row | Compound | Intracellular Concentration (HT29 cells; 0 h) [nmol/10^6 cells] | Intracellular Concentration (HT29 cells; 0.5 h) [nmol/10^6 cells] | Intracellular Concentration (HT29 cells; 1 h) [nmol/10^6 cells] | Intracellular Concentration (HT29 cells; 3 h) [nmol/10^6 cells] | Intracellular Concentration (HT29 cells; 6 h) [nmol/10^6 cells] | Intracellular Concentration (HT29 cells; 12 h) [nmol/10^6 cells] | Intracellular Concentration (HT29 cells; 24 h) [nmol/10^6 cells] | Intracellular Concentration (HT29 cells; 30 h) [nmol/10^6 cells] | Intracellular/extracellular ratio (HT29 cells; 0 h) | Intracellular/extracellular ratio (HT29 cells; 0.5 h) | Intracellular/extracellular ratio (HT29 cells; 1 h) | Intracellular/extracellular ratio (HT29 cells; 3 h) | Intracellular/extracellular ratio (HT29 cells; 6 h) | Intracellular/extracellular ratio (HT29 cells; 12 h) | Intracellular/extracellular ratio (HT29 cells; 24 h) | Intracellular/extracellular ratio (HT29 cells; 30 h) | Intracellular Concentration (MDA−MB−231 cells; 0 h) [nmol/10^6 cells] | Intracellular Concentration (MDA−MB−231 cells; 0.5 h) [nmol/10^6 cells] | Intracellular Concentration (MDA−MB−231 cells; 1 h) [nmol/10^6 cells] | Intracellular Concentration (MDA−MB−231 cells; 3 h) [nmol/10^6 cells] | also measured
1 | Cc1c(C)c2cccnc2c2ncccc12.N[C@H]1CCCC[C@@H]1N.O=[N+]([O-])[O-].O=[N+]([O-])[O-].[OH][Pt+2][OH] [Pt^IV56MESS(OH)2, [Pt(5,6-dimethyl-1,10-phenanthroline)(1S,2S-diaminocyclohexane)(dihydroxy)](NO3)2] | 0.14 | 0.18 | 0.28 | 0.42 | 1.74 | 5.43 | 9.14 | 9.98 | 21.81 | 28.52 | 43.51 | 66.77 | 273.54 | 854.01 | 1435.74 | 1568.28 | 0.14 | 0.11 | 0.05 | 0.25 | Intracellular Concentration (MDA−MB−231 cells; 6 h): 0.30 nmol/10^6 cells; Intracellular Concentration (MDA−MB−231 cells; 12 h): 1.16 nmol/10^6 cells; Intracellular Concentration (MDA−MB−231 cells; 24 h): 2.74 nmol/10^6 cells; Intracellular Concentration (MDA−MB−231 cells; 30 h): 4.19 nmol/10^6 cells; Intracellular/extracellular ratio (MDA−MB−231 cells; 0.5 h): 50.71; Intracellular/extracellular ratio (MDA−MB−231 cells; 1 h): 26.14; Intracellular/extracellular ratio (MDA−MB−231 cells; 3 h): 117.57; Intracellular/extracellular ratio (MDA−MB−231 cells; 6 h): 142.93; Intracellular/extracellular ratio (MDA−MB−231 cells; 12 h): 548.82; Intracellular/extracellular ratio (MDA−MB−231 cells; 24 h): 1293.81; IC50 (MDA−MB−231 3D networks): 1.4 ± 1.34 µM
2 | N[C@H]1CCCC[C@@H]1N.O=[N+]([O-])[O-].O=[N+]([O-])[O-].[OH-].[OH-].[Pt+4].c1cnc2c(c1)ccc1cccnc12 [[Pt(1,10-phenanthroline)(1S,2S-diaminocyclohexane)(dihydroxy)](NO3)2] | 0.10 | 0.10 | 0.18 | 0.33 | 0.77 | 3.64 | 5.18 | 5.79 | 16.45 | 15.93 | 28.08 | 51.34 | 121.19 | 571.26 | 813.09 | 909.81 | 0.13 | 0.13 | 0.223 | 0.16 | Intracellular Concentration (MDA−MB−231 cells; 6 h): 0.25 nmol/10^6 cells; Intracellular Concentration (MDA−MB−231 cells; 12 h): 0.63 nmol/10^6 cells; Intracellular Concentration (MDA−MB−231 cells; 24 h): 0.78 nmol/10^6 cells; Intracellular Concentration (MDA−MB−231 cells; 30 h): 1.29 nmol/10^6 cells; Intracellular/extracellular ratio (MDA−MB−231 cells; 0 h): 21.21; Intracellular/extracellular ratio (MDA−MB−231 cells; 0.5 h): 20.07; Intracellular/extracellular ratio (MDA−MB−231 cells; 1 h): 35.47; Intracellular/extracellular ratio (MDA−MB−231 cells; 3 h): 26.14; Intracellular/extracellular ratio (MDA−MB−231 cells; 6 h): 38.82; Intracellular/extracellular ratio (MDA−MB−231 cells; 12 h): 98.56; Intracellular/extracellular ratio (MDA−MB−231 cells; 24 h): 123.87; Intracellular/extracellular ratio (MDA−MB−231 cells; 30 h): 203.38; IC50 (MDA−MB−231 3D networks): 6.18 ± 1.62 µM
